Measurements taken from patent US8044069B2, “Compounds as calcium channel blockers” (Abbott Laboratories, priority 2008, dated 2011).

target: human Cav2.2 (Homo sapiens, UniProt Q00975); assay: Assessment of calcium channel activity using FLIPR (Ca2+ influx in IMR32 cells); format: cell-based; settings: IMR32 cells endogenously expressing human Cav2.2; 60 minute pre-incubation; 2 μM nifedipine; depolarized with 80 mM KCl, 5 mM CaCl2
Outline: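 IMR32 cells were dye-loaded and pre-incubated 60 min with compound (10 μM to 0.1 nM) in 1.3 mM CaCl2 plus 2 μM nifedipine to block L-type channels. Cells were then depolarized with 80 mM KCl while Ca2+ was raised to 5 mM, and FLIPR read the influx. IC50 came from a sigmoidal fit of % inhibition versus the no-inhibitor control.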

Sequence of human Cav2.2 (Q00975 whole entry): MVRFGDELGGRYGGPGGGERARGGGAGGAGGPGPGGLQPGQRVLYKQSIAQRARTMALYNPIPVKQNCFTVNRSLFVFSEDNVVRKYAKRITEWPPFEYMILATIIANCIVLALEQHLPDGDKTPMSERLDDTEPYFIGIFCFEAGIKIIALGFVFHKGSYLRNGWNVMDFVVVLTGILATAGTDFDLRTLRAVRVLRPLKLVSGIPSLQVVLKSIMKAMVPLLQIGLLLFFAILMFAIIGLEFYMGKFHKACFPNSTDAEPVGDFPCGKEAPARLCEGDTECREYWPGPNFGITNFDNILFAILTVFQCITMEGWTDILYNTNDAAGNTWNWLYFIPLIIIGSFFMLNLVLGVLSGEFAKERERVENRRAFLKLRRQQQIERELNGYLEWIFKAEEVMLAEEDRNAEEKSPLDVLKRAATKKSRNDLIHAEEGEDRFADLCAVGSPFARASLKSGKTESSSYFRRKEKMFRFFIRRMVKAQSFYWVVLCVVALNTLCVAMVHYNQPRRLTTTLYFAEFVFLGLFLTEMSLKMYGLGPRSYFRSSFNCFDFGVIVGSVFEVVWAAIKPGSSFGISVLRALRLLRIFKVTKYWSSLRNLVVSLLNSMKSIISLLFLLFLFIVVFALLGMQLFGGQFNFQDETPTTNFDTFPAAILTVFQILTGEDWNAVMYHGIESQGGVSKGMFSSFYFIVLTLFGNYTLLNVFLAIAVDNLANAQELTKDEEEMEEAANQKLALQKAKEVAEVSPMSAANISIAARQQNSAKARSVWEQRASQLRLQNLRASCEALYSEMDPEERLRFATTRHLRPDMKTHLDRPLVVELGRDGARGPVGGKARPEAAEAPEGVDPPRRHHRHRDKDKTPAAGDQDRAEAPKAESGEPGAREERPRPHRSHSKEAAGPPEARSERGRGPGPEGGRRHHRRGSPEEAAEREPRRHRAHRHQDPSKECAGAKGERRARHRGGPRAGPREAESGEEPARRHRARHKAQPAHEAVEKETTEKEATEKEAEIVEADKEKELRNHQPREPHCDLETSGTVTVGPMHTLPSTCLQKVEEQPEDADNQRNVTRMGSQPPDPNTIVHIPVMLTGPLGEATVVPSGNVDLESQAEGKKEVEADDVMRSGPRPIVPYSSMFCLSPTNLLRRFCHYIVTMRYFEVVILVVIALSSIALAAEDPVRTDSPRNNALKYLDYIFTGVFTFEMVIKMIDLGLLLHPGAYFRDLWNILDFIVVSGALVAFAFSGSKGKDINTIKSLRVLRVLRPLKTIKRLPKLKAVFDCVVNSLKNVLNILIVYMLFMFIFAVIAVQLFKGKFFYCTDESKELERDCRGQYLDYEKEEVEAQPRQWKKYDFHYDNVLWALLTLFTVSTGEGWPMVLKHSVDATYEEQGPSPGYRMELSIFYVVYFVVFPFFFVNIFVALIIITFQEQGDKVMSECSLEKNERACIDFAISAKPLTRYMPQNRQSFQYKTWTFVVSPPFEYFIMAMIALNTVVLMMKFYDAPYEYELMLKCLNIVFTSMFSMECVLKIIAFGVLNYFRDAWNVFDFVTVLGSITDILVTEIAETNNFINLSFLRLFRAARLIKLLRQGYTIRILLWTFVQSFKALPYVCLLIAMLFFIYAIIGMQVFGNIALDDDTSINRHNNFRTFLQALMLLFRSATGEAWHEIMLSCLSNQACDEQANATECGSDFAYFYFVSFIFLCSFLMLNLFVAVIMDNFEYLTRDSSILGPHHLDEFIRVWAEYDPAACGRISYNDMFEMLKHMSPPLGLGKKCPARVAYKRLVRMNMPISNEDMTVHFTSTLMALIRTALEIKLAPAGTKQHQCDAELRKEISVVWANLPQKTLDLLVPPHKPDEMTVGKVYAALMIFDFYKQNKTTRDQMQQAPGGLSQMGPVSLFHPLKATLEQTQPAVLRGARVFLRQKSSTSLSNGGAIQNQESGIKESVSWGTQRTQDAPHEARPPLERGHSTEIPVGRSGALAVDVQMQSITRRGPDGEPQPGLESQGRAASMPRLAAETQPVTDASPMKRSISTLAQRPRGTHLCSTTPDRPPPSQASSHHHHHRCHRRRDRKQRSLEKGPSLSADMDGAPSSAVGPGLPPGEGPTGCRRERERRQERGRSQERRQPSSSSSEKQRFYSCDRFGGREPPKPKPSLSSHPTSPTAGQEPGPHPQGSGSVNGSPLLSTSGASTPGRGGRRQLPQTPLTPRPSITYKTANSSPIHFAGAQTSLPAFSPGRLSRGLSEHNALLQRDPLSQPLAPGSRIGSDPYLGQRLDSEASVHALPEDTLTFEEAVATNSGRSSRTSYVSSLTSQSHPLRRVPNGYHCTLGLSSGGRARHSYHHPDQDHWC
Sequence of human Cav2.2 (P54289 25-951 partner limits assumed): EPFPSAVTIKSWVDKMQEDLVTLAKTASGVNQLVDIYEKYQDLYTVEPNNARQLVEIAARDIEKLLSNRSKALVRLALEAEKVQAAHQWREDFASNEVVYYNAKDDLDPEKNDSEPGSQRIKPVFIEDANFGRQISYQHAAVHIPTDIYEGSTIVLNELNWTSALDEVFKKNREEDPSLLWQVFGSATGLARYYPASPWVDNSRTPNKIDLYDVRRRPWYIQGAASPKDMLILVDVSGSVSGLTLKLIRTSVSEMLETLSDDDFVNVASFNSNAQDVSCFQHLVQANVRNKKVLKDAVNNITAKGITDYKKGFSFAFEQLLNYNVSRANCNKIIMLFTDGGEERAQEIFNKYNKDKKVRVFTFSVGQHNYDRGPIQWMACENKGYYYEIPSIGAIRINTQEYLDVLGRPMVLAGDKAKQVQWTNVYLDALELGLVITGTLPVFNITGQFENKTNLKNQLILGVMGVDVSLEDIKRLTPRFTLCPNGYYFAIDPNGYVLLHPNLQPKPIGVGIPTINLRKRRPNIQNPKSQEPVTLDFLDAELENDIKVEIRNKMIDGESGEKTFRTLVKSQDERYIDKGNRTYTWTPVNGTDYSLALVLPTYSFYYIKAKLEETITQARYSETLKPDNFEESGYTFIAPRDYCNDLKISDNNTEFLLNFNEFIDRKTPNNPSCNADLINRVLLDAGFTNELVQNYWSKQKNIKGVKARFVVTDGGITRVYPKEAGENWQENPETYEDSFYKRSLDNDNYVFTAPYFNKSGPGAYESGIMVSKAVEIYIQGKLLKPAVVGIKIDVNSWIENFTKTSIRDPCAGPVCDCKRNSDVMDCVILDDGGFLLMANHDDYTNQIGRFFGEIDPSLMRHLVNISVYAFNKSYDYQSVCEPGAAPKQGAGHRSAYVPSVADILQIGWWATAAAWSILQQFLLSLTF
Sequence of human Cav2.2 (P54289 952-1103 partner limits assumed): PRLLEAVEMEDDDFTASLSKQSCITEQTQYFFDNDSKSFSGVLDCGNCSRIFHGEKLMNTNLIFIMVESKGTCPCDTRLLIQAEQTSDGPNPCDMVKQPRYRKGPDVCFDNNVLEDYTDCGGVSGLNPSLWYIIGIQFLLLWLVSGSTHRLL
Sequence of human Cav2.2 (P54284 whole entry partner): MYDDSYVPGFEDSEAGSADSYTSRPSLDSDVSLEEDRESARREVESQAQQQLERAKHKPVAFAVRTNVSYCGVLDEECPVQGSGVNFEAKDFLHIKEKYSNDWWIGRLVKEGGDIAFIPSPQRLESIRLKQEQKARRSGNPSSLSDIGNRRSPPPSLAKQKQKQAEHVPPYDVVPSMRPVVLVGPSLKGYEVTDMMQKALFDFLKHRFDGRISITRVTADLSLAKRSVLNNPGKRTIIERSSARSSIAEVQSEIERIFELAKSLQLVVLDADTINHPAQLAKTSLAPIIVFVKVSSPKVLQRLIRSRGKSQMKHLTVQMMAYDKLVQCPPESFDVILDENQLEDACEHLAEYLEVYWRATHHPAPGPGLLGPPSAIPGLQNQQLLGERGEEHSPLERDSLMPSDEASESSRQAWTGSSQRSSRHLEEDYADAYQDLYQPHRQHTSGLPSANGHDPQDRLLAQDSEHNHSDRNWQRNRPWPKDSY

SMILES | IC50
CC1(NC(=O)CN2CCCC(c3ccccc3)(c3ccccc3)C2=O)CCN(Cc2ccccc2)C1 (stereo not drawn) [Example 89, N-(1-benzyl-3-methylpyrrolidin-3-yl)-2-(2-oxo-3,3-diphenylpiperidin-1-yl)acetamide] | 3000 nM
O=C(CN1CCCC(c2ccccc2)(c2ccccc2)C1=O)N1CCOC(c2ccccc2)(c2ccccc2)C1 [Example 69, 1-[2-(2,2-diphenylmorpholin-4-yl)-2-oxoethyl]-3,3-diphenylpiperidin-2-one] | 6050 nM
O=C(CN1CCCC(c2ccccc2)C1=O)N1CCN(C(c2ccc(F)cc2)c2ccc(F)cc2)CC1 (stereo not drawn) [Example 92, 1-(2-{4-[bis(4-fluorophenyl)methyl]piperazin-1-yl}-2-oxoethyl)-3-phenylpiperidin-2-one] | 1010 nM
O=C(CN1CCCC(c2ccccc2)(c2ccccc2)C1=O)N1CCC(n2nnc3cc(C(F)(F)F)ccc32)CC1 [Example 164, 1-(2-oxo-2-{4-[5-(trifluoromethyl)-1H-1,2,3-benzotriazol-1-yl]piperidin-1-yl}ethyl)-3,3-diphenylpiperidin-2-one] | 2020 nM
O=C(CN1CCC(c2ccc(F)cc2)C1=O)N1CCc2ccc(F)cc2C1 (stereo not drawn) [Example 255, 1-[2-(7-fluoro-3,4-dihydroisoquinolin-2(1H)-yl)-2-oxoethyl]-3-(4-fluorophenyl)pyrrolidin-2-one] | 9890 nM
O=C1N(Cc2nc(-c3ccc4[nH]ncc4c3)no2)CCCC1(c1ccccc1)c1ccccc1 [Example 154, 1-{[3-(1H-indazol-5-yl)-1,2,4-oxadiazol-5-yl]methyl}-3,3-diphenylpiperidin-2-one] | 5150 nM
O=C(CN1CCCC(c2ccccc2)C1=O)N1CCN(Cc2cccc(C(F)(F)F)c2)CC1 (stereo not drawn) [Example 93, 1-(2-oxo-2-{4-[3-(trifluoromethyl)benzyl]piperazin-1-yl}ethyl)-3-phenylpiperidin-2-one] | 5900 nM
COc1ccc(C2(c3ccc(OC)cc3)CCCN(CCCN(C)Cc3cc(OC)cc(OC)c3)C2=O)cc1 [Example 127, 1-{3-[(3,5-dimethoxybenzyl)(methyl)amino]propyl}-3,3-bis(4-methoxyphenyl)piperidin-2-one] | 1530 nM
COc1cc(OC)cc(OCCCN(C)CCN2CCC(c3ccc(F)cc3)(c3ccc(F)cc3)C2=O)c1 [Example 105, 1-{2-[[3-(3,5-dimethoxyphenoxy)propyl](methyl)amino]ethyl}-3,3-bis(4-fluorophenyl)pyrrolidin-2-one] | 1650 nM
O=C1C(c2ccc(F)cc2)CCN1Cc1nc(-c2ccc(C(F)(F)F)cc2)no1 (stereo not drawn) [Example 189, 3-(4-fluorophenyl)-1-({3-[4-(trifluoromethyl)phenyl]-1,2,4-oxadiazol-5-yl}methyl)pyrrolidin-2-one] | 5820 nM
C[C@@H]1CN(C(c2ccccc2)c2ccccc2)CCN1C(=O)CN1CCC(c2ccccc2)(c2ccccc2)C1=O [Example 49, 1-{2-[(2R)-4-benzhydryl-2-methylpiperazin-1-yl]-2-oxoethyl}-3,3-diphenylpyrrolidin-2-one] | 2760 nM
O=C(CN1CCCC(c2ccccc2)C1=O)N1Cc2ccc(C(F)(F)F)cc2C1 (stereo not drawn) [Example 178, 1-{2-oxo-2-[5-(trifluoromethyl)-1,3-dihydro-2H-isoindol-2-yl]ethyl}-3-phenylpiperidin-2-one] | 7730 nM
O=C(CN1CCC(c2ccc(F)cc2)C1=O)N1CCc2cc(Cl)ccc2C1 (stereo not drawn) [Example 257, 1-[2-(6-chloro-3,4-dihydroisoquinolin-2(1H)-yl)-2-oxoethyl]-3-(4-fluorophenyl)pyrrolidin-2-one] | 6160 nM
O=C(CN1CCCC(c2ccccc2)(c2ccccc2)C1=O)N1CCN(C(=O)OCc2ccccc2)CC1 [Example 182, benzyl 4-[(2-oxo-3,3-diphenylpiperidin-1-yl)acetyl]piperazine-1-carboxylate] | 1370 nM
O=C(CN1CCCC(c2ccccc2)(c2ccccc2)C1=O)N1CCC(C(c2ccccc2)c2ccccc2)CC1 [Example 76, 1-[2-(4-benzhydrylpiperidin-1-yl)-2-oxoethyl]-3,3-diphenylpiperidin-2-one] | 2610 nM
O=C(CN1CCCC(c2ccccc2)(c2ccccc2)C1=O)N1CCC(O)(c2ccc(Cl)c(C(F)(F)F)c2)CC1 [Example 250, 1-(2-{4-[4-chloro-3-(trifluoromethyl)phenyl]-4-hydroxypiperidin-1-yl}-2-oxoethyl)-3,3-diphenylpiperidin-2-one] | 4130 nM
O=C1CN(C(c2ccccc2)c2ccccc2)CCN1CCN1CCC(c2ccccc2)(c2ccccc2)C1=O [Example 64, 4-benzhydryl-1-[2-(2-oxo-3,3-diphenylpyrrolidin-1-yl)ethyl]piperazin-2-one] | 2090 nM
O=C(CN1CCC(c2ccc(F)cc2Cl)C1=O)N1Cc2ccc(F)cc2C1 (stereo not drawn) [Example 268, 3-(2-chloro-4-fluorophenyl)-1-[2-(5-fluoro-1,3-dihydro-2H-isoindol-2-yl)-2-oxoethyl]pyrrolidin-2-one] | 11400 nM

Other lines, results leading:

IC50 | SMILES
2350 nM | CN(CCc1ccccc1)CCN1CCCC(c2ccc(F)cc2)(c2ccc(F)cc2)C1=O [Example 122, 3,3-bis(4-fluorophenyl)-1-{2-[methyl(2-phenylethyl)amino]ethyl}piperidin-2-one]
2550 nM | O=C(CN1CCC(c2ccccc2)(c2ccccc2)C1=O)N1CCN(c2ccc(F)cc2)CC1 [Example 54, 1-{2-[4-(4-fluorophenyl)piperazin-1-yl]-2-oxoethyl}-3,3-diphenylpyrrolidin-2-one]
2970 nM | N#Cc1ccc(NC(=O)CN2CCC(c3ccc(F)cc3)(c3ccc(F)cc3)C2=O)nc1 [Example 252, 2-[3,3-bis(4-fluorophenyl)-2-oxopyrrolidin-1-yl]-N-(5-cyanopyridin-2-yl)acetamide]
1010 nM | O=C(CN1CCCC(c2ccccc2)(c2ccccc2)C1=O)NC1CCN(Cc2cccc(C(F)(F)F)c2)CC1 [Example 200, 2-(2-oxo-3,3-diphenylpiperidin-1-yl)-N-{1-[3-(trifluoromethyl)benzyl]piperidin-4-yl}acetamide]
2110 nM | CC1(NC(=O)CN2CCC(c3ccccc3)(c3ccccc3)C2=O)CCN(Cc2ccccc2)C1 (stereo not drawn) [Example 40, N-(1-benzyl-3-methylpyrrolidin-3-yl)-2-(2-oxo-3,3-diphenylpyrrolidin-1-yl)acetamide]
2360 nM | O=C(CN1CCCC(c2ccccc2)(c2ccccc2)C1=O)N1CCN(C(c2ccc(F)cc2)c2ccc(F)cc2)CC1 [Example 82, 1-(2-{4-[bis(4-fluorophenyl)methyl]piperazin-1-yl}-2-oxoethyl)-3,3-diphenylpiperidin-2-one]
3310 nM | O=C(CN1CCC(c2ccccc2)(c2ccccc2)C1=O)N1CCc2ccccc2C1 [Example 19, 1-[2-(3,4-dihydroisoquinolin-2(1H)-yl)-2-oxoethyl]-3,3-diphenylpyrrolidin-2-one]
490 nM | O=C(CN1CCC(c2ccccc2)(c2ccccc2)C1=O)N[C@@H]1CC[C@H]2CN(Cc3cccc(C(F)(F)F)c3)C[C@H]21 (relative stereo) [Example 57, 2-(2-oxo-3,3-diphenylpyrrolidin-1-yl)-N-{(3aS*,4R*,6aR*)-2-[3-(trifluoromethyl)benzyl]octahydrocyclopenta[c]pyrrol-4-yl}acetamide]
1450 nM | CN(CCCN1CCCC(c2ccc(F)cc2)(c2ccc(F)cc2)C1=O)CCc1ccccc1 [Example 123, 3,3-bis(4-fluorophenyl)-1-{3-[methyl(2-phenylethyl)amino]propyl}piperidin-2-one]
2550 nM | O=C(CN1CCC(c2ccc(F)cc2)(c2ccc(F)cc2)C1=O)N1CCc2ccc(C(F)(F)F)cc2C1 [Example 259, 3,3-bis(4-fluorophenyl)-1-{2-oxo-2-[7-(trifluoromethyl)-3,4-dihydroisoquinolin-2(1H)-yl]ethyl}pyrrolidin-2-one]
1910 nM | O=C1N(Cc2nc(-c3cnccn3)no2)CCC1(c1ccc(F)cc1)c1ccc(F)cc1 [Example 232, 3,3-bis(4-fluorophenyl)-1-[(3-pyrazin-2-yl-1,2,4-oxadiazol-5-yl)methyl]pyrrolidin-2-one]
2380 nM | CC(CNC(=O)CN1CCC(c2ccc(F)cc2)(c2ccc(F)cc2)C1=O)(c1ccccc1)c1ccccc1 [Example 59, 2-[3,3-bis(4-fluorophenyl)-2-oxopyrrolidin-1-yl]-N-(2,2-diphenylpropyl)acetamide]
3890 nM | O=C(CN1CCC(c2ccccc2)(c2ccccc2)C1=O)NCc1ccc(F)cc1 [Example 12, N-(4-fluorobenzyl)-2-(2-oxo-3,3-diphenylpyrrolidin-1-yl)acetamide]
1370 nM | O=C(CN1CCCC(c2ccccc2)(c2ccccc2)C1=O)N[C@@H]1CCN(Cc2cccc(C(F)(F)F)c2)C1 [Example 186, 2-(2-oxo-3,3-diphenylpiperidin-1-yl)-N-{(3R)-1-[3-(trifluoromethyl)benzyl]pyrrolidin-3-yl}acetamide]
4480 nM | O=C(CN1CCCC(c2ccccc2)(c2ccccc2)C1=O)N1CCC(c2ccc(C(F)(F)F)cc2)CC1 [Example 245, 1-(2-oxo-2-{4-[4-(trifluoromethyl)phenyl]piperidin-1-yl}ethyl)-3,3-diphenylpiperidin-2-one]
1010 nM | O=C(CN1CCC(c2ccc(F)cc2)(c2ccc(F)cc2)C1=O)N1CCN(Cc2cccc(C(F)(F)F)c2)CC1 [Example 60, 3,3-bis(4-fluorophenyl)-1-(2-oxo-2-{4-[3-(trifluoromethyl)benzyl]piperazin-1-yl}ethyl)pyrrolidin-2-one]
1530 nM | CN(CCCN1CCC(c2ccc(F)cc2)(c2ccc(F)cc2)C1=O)C1Cc2ccccc2C1 [Example 114, 1-{3-[2,3-dihydro-1H-inden-2-yl(methyl)amino]propyl}-3,3-bis(4-fluorophenyl)pyrrolidin-2-one]
4080 nM | O=C1N(Cc2nc(-c3ccc(F)cc3)no2)CCC1(c1ccccc1)c1ccccc1 [Example 194, 1-{[3-(4-fluorophenyl)-1,2,4-oxadiazol-5-yl]methyl}-3,3-diphenylpyrrolidin-2-one]
